row,SMILES,melting point
1,CC(=O)Nc1ccc(NC2CCN3CCc4ccccc4C3C2)cc1 (stereo unspecified),210 to 213 °C
2,N#Cc1ccc(NC(=O)c2cccc(OCc3ccc(C(F)(F)F)cc3)c2)cc1,167 to 168 °C
3,CCOC(=O)C1=COc2ccccc2O1,42 °C
4,Cc1ccc(N)cc1Nc1cc(-c2cccnc2)ccn1,183 to 186 °C
5,CCCCCCCC(=O)Oc1ccc2nc(S(N)(=O)=O)sc2c1,114 °C
6,CCCCCCCCCCCCC1=C(Cl)C(=O)c2ccccc2C1=O,80 to 82 °C
7,CCOC(=O)C(C)(C)Oc1ccc(CCCC(=O)NN(Cc2cccc(OC)c2)C(N)=O)cc1,91.9 to 93.4 °C
8,NCCCNc1ccc(NCCCN)c2c1C(=O)c1c(O)ccc(O)c1C2=O,115 to 130 °C
9,O=c1c2scc(Br)c2ncn1O,244 to 247 °C
10,CCOC(=O)Nc1nc(-c2ccccc2)c(-c2nc3ccccc3c(=O)n2-c2ccccc2)s1,245 to 247 °C
11,[N-]=[N+]=NC[C@H]1CN(c2cccc(F)c2)C(=O)O1,81 to 82 °C
12,COC1CN(CCC(C(=O)N(C)C)(c2ccccc2)c2ccccc2)CCC1NC(=O)c1ccccc1 (stereo unspecified),147 °C
13,Cc1cc(S)n2nc(CN=[N+]=[N-])nc2n1,214 to 215 °C
14,COc1ccc(C=O)cc1I,104 to 107 °C
15,O=C1c2ccccc2C(=O)N1CC(=O)N1Cc2ccccc2Oc2ccc(Cl)cc21,184 to 185 °C
16,O=c1[nH]c2ccccc2cc1CN1CC=C(/C=C/c2ccccc2)CC1,258 to 260 °C
17,O=C(CCCCCCn1ccc2ccc([N+](=O)[O-])cc21)NS(=O)(=O)c1ccccc1,117 to 121 °C
18,FC(F)c1nc2ccccc2n1-c1nc(Sc2ccccc2)nc(N2CCOCC2)n1,245 to 248 °C
19,Cc1c(C(=O)O)ccc(S(C)(=O)=O)c1S(C)(=O)=O,192 to 198 °C
20,COC(=O)N1CCC(Nc2ncc3ncnc(Nc4ccc(F)c(Cl)c4)c3n2)CC1,213 to 215 °C
21,COC(=O)CC(=O)COc1cc(O)c2c(c1)OC(c1ccc(OC)c(O)c1)CC2=O (stereo unspecified),114 to 118 °C
22,CC(CC#N)C(C#N)(c1cccc(C(F)(F)F)c1)N1CCOCC1 (stereo unspecified),115 to 118 °C
23,C=CCNc1ccnc2cn[nH]c12,230 to 232 °C
24,CNc1cnc(-c2cccnc2)s1,141 to 146 °C
25,O=C(O)C1Cc2cc(O)c(O)cc2CN1 (stereo unspecified),288 °C
26,O=[N+]([O-])c1cc(CS(=O)(=O)CCO)ccc1CS(=O)(=O)CCO,125 to 126 °C

row,SMILES,melting point
1,C=CCc1cc(F)ccc1OCCCN1CCC2(CC1)C(=O)NCN2c1ccccc1,110 to 113 °C
2,FCC(F)(F)Sc1nc(-c2ccccc2)c(-c2ccccc2)[nH]1,225 to 226 °C
3,Cn1cc(-c2cccc(-n3ncc4cc(C(C)(C)C)cc(F)c4c3=O)c2CO)cc(Nc2ccc(C(C)(C)C(=O)O)cn2)c1=O,218 to 220 °C
4,CC(C)(C)OC(=O)[C@@H]1CCCN1C(=O)CCC(=O)c1ccc(Br)cc1,70 to 71 °C
5,O=C1NC(=O)c2c1c(-c1ccccc1Cl)cc1c2c2cc(O)ccc2n1CCSc1ccccc1,262 to 264 °C
6,CS(=O)(=O)c1ccc(C(=O)Nc2ccc(Cl)c(-c3ncc(C(=O)NO)cn3)c2)c(Cl)c1,170 to 172 °C
7,CCCCN1C(=O)NC(C(C)O)C1=O (stereo unspecified),145 °C
8,CCCCCCCCCCCCCCCCc1nc(N(C)C)nc(C)c1O,86 to 87 °C
9,N#Cc1ccc(C(N2CCN(c3ncccn3)CC2)N2CCCC2=O)cc1 (stereo unspecified),185 to 188 °C
10,COC(=O)c1ccc(C(=NO)c2ccc(C(=O)OC)cc2)cc1,177 to 178 °C
11,COC(=O)[C@H](CCCO)NC(=O)[C@H](Cc1ccccc1)NC(=O)OCc1ccccc1,155 to 157 °C
12,CSC1=CC2=CN(S)NN2C(SC)=N1,250 to 252 °C
13,CCCCCCCCCCCCSc1cc(SCCCCCCCCCCCC)c([N+](=O)[O-])c(C(=O)O)c1,74 to 77 °C
14,COC(=O)C1=C(C)NC(c2cnc(Cl)s2)=NC1c1ccc(F)cc1 (stereo unspecified),175 to 178 °C
15,CCc1[nH]c(=O)[nH]c1C(=O)c1cccnc1,219 to 221 °C
16,N#CCNS(=O)(=O)c1ccc([N+](=O)[O-])cc1,115 to 120 °C
17,OCCC#CC1CCC(COc2ccc(F)cc2)O1 (mixture of isomers),76 °C
18,CN(CCO)c1nccc(-c2ccncc2)n1,191 to 195 °C
19,COc1cc2cc3c(N)c(C(N)=O)sc3nc2cc1OC,278 to 280 °C
20,CCOc1c(C)c(N2CCN(c3ccc(OC)cc3)CC2)c(C)c2c1OC(C)(C)C2=O,109 to 112 °C
21,COc1ccc(S(=O)(=O)C(C)(CC=Cc2ccccc2)C(=O)NO)cc1 (stereo unspecified),162 to 164 °C
22,CC(C(=O)O)c1ccc2oc(-c3ccc(Cl)cc3)nc2c1 (stereo unspecified),190 °C
23,COc1c(Cl)cc(N2C(=O)N3CCCC3(Cc3ccc(C#N)cc3)C2=O)cc1Cl (stereo unspecified),95.1 °C
24,Cc1cc(N2CCN(CCc3ccc(NS(C)(=O)=O)cc3)CC2)ccc1NS(C)(=O)=O,235 to 237 °C
25,CC(C)(C)OC(=O)N1CCc2cc3ccccc3n2CC1,129 to 132 °C
26,CCCc1cn2ccccc2c1C(=O)c1ccc(OS(=O)(=O)c2ccc(C)cc2)cc1,95 to 97 °C

row,SMILES,melting point
1,CC1(C)CCc2c(-c3ccoc3)nc3sc4c(NCc5ccncc5)ncnc4c3c2C1,265 to 266 °C
2,CCc1c2c(nn1CC)c(N)nc1cc(OC)ccc12,210 to 211 °C
3,COc1ccc(N)c2nccc(Cl)c12,111 to 115 °C
4,CCCCCC(=O)Nc1ccc(C(=O)NN=C2C(=O)Nc3ccc(I)cc32)cc1,305 °C
5,CC1(C)OC(=O)COC1=O,82 to 83 °C
6,O=C1NC(=O)C(Cc2ccc(OCc3cccc(-c4ccccc4)c3)cc2)S1 (stereo unspecified),109 to 111 °C
7,CCn1cc(CN(C(=O)C2CCCc3c(O)cccc32)c2ccc(C(C)C)cc2)cn1 (stereo unspecified),212 to 215 °C
8,COc1cccc(CNc2nc(Cl)nc3c2nc(Br)n3C(C)C)c1,123 to 125 °C
9,CCCSc1ncc(C(Cc2ccccc2)C(=O)O)n1Cc1ccccc1Cl (stereo unspecified),60 to 63 °C
10,COc1cc(CNC(=S)NC(COC(=O)C(C)(C)C)Cc2ccc(C)c(C)c2)ccc1O (stereo unspecified),43 to 48 °C
11,C=CCc1cc(C(C)=O)c(NC(C)=O)cc1O,172 to 174 °C
12,CCOC(=O)c1ccc(N(CCOc2ccc(C#N)c3ccccc23)C(=O)C(F)(F)F)cc1,150 to 151 °C
13,COC1=C(OC)C(=O)C2=C(CCC(CCOc3ccc(OC)cc3)CC2)C1=O,76 to 77 °C
14,COc1ccc([N+](=O)[O-])c(F)c1,47 to 49 °C
15,CNc1nc(Cl)nc2cc(OC)c(OC)cc12,216 to 217 °C
16,COC(=O)CCC(=O)c1ccc(C)cc1OCC(O)CNC(C)(C)C (stereo unspecified),82 to 84.5 °C
17,COc1cc(C(=O)O)ccc1CN1CCOc2ccc(NC(=O)OC3CCCC3)cc21,221 to 222 °C
18,CCCc1cc2cc(OCC(=O)O)c(Cl)c(Cl)c2s1,165 to 166 °C
19,Cc1ccc(-c2c(NS(=O)(=O)c3cccc4ccccc34)ncnc2OCCOc2ncc(Br)cn2)cc1,204 °C
20,O=C(O)Cc1noc(Cc2ccccc2)n1,109 to 112 °C
21,Cc1cc2c(c(C)c1O)C(C)CN2C(=O)C(C)(C)C (stereo unspecified),144 to 145 °C
22,COc1ccc(N2CCOCC2)c2sc(NC(=O)N3CCC(C)(O)CC3)nc12,236 °C
23,O=C1Cc2cc(CCN3CCC(c4noc5cc(F)ccc45)CC3)ccc2N1,199 to 204 °C
24,COCCOCc1nc2cnc3ccc(OCc4ccccc4)cc3c2n1C,128 to 132 °C
25,Cc1ccsc1-c1nc(CCl)co1,95 to 96 °C
26,CCN1CCNC(=O)C1c1ccc(Nc2nc(-c3ccc(F)c(NC(=O)c4cc5c(s4)CCCC5)c3C)cn(C)c2=O)cc1 (stereo unspecified),179 to 180 °C

row,SMILES,melting point
1,COc1cc(S(C)(=O)=O)c(C)cc1OCC(=O)NCC(O)COc1ccccc1C (stereo unspecified),75 to 79 °C
2,CC(=O)Nc1cccc(-n2nc(C(C)C)c(=O)n(Cc3ccc(Cl)cc3)c2=O)c1,178 °C
3,CCCCOC(=N)c1sc2ccccc2c1O,185 °C
4,COC(=O)c1cc2ccc(OCc3ccccc3)cc2oc1=O,129 to 130 °C
5,CC1Cc2cc(Br)ccc2C1=O (stereo unspecified),55 °C
6,COc1cc(-c2csc(N)n2)cc([N+](=O)[O-])c1O,248 to 250 °C
7,CCCc1nc(NCc2ccccn2)nc(Nc2cccc(C(C)C)c2)n1,103 to 104 °C
8,Cc1ccc(-c2c(NS(=O)(=O)c3ccc(C(C)(C)C)cc3)ncnc2OCCOc2ncc(C#CC(C)(C)O)cn2)cc1,172 to 174 °C
9,"CC(c1ccccc1)n1cncc1C(=O)O (single isomer, unassigned; (-))",155 °C
10,"CC(N=Cc1ccc(O)cc1)c1ccc([N+](=O)[O-])cc1 (single isomer, unassigned; (-))",118 to 120 °C
11,CC(C)OC(=O)c1cc(-c2nn(C)c(C(F)(F)F)c2C(F)F)c(F)cc1Cl,57 °C
12,Cc1ccc(N2CCN(c3ccc4c(ncc5c4c(=O)c(C(=O)O)cn5C)c3F)CC2)cc1F,> 300 °C
13,O=C1CSC(=S)N1c1cccc(C(F)(F)F)c1,177 to 178 °C
14,N#CCc1cc(N)c(F)cc1Cl,85 to 86 °C
15,O=c1[nH]c(-c2ccc(CCN3CCN(c4cccc5cc(F)ccc45)CC3)cc2)cs1,228 to 270 °C
16,COc1ccc(C(=O)Nc2ccc(-c3ccc4c(c3)OCO4)cc2)cc1CCCN(C)C,190 to 192 °C
17,OC(CNc1cc(Cl)c(Cl)cc1Cl)Cn1ccnc1 (stereo unspecified),156 to 158 °C
18,O=C(c1cc(O)c2occc2c1)c1ccco1,140 to 142 °C
19,CC(C)(C)C(=O)Nc1ccccn1,74 to 76 °C
20,CN(c1nc2ccccc2c(=O)o1)c1ccccc1I,144 to 148 °C
21,Cc1cnc(NC(=O)C(Cc2ccc(F)cc2)c2ccc(S(C)(=O)=O)cc2)cn1 (stereo unspecified),172 to 175 °C
22,CCOc1ccccc1C1CN=C(NC(=O)OC)N1C (stereo unspecified),137 to 138 °C
23,COC(=O)c1ccc(-c2coc(-c3ccc4c(c3)C(C)(C)CCC4(C)C)c2)cc1,109 to 111 °C

# Reference: a melting point compilation (Tetko et al.; mined from patent text by program, amines drawn as free bases though some values may be those of a salt)
